# Experimental data: US12084436B2, “Heterocyclic compound” (Takeda Pharmaceutical Company Limited, priority 2019, dated 2024)
# Target: T1, HDAC6 enzyme (Homo sapiens, UniProt Q9UBN7)
# T1 construct: prepared by transducing full length HDAC6 gene into Sf-9 insect cells; GST; purchased SignalChem; host or cells: Sf-9 insect cells
# T1 sequence (Q9UBN7 1-1215): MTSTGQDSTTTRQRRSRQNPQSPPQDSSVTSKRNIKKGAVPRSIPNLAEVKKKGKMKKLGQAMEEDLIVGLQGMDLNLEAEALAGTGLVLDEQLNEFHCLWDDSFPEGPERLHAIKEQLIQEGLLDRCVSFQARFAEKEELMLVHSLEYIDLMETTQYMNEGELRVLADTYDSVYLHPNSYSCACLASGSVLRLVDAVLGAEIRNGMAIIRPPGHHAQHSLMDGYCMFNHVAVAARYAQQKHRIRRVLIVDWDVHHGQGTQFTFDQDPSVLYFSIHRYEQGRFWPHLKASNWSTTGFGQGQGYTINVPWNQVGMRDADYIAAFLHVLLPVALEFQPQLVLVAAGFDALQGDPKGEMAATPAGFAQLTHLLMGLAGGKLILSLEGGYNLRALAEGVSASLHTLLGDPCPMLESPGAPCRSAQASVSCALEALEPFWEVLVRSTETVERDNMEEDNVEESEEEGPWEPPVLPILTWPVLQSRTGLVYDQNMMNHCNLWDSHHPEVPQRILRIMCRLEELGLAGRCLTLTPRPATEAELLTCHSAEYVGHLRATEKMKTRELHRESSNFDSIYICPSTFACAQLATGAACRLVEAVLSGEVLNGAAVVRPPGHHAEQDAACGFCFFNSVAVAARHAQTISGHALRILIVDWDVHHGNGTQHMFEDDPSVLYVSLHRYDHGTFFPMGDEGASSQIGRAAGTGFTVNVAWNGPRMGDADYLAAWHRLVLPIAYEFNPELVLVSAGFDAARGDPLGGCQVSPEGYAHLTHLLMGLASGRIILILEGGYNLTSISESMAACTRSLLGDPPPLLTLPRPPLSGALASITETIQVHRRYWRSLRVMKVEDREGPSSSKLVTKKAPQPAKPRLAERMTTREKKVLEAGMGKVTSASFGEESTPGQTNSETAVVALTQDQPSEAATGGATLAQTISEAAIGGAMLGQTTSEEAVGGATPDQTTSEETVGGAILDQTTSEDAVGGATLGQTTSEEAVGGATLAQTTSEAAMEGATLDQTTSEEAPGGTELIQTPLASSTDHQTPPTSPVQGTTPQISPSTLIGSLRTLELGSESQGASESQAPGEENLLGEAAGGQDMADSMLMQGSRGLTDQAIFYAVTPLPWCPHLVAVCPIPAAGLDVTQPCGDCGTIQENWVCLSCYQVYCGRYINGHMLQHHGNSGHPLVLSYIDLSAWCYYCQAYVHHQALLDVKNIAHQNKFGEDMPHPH
# Assay: HDAC6 enzyme inhibitory assay (HDAC-Glo I/II Assay kit, luminescence)
# Format: biochemical
# Settings: 10 μM test compound; wells without enzyme = 100% inhibition; read-out: HDAC6 inhibitory rate (%) (10 μM)
# In short: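 Full-length human HDAC6, GST-purified from Sf-9 cells, was preincubated with compound for 60 min at room temperature in Tris-HCl pH 7.5 buffer with glutathione and Tween-20. Substrate-developer was then added, and luminescence was read after 20 min at room temperature. Inhibition was expressed relative to no-enzyme wells, taken as 100% inhibition.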
row,inhibition at 10 µM,SMILES
1,96%,"Cn1ccc(Cn2ccnc2-c2cc(F)cc(-c3nnc(C(F)F)o3)c2)n1 [Example 23a, 2-(difluoromethyl)-5-(3-fluoro-5-{1-[(1-methyl-1H-pyrazol-3-yl)methyl]-1H-imidazol-2-yl}phenyl)-1,3,4-oxadiazole]"
2,101%,"O=C(OC1CCOCC1)N(Cc1ccc(F)cc1)N1Cc2ccc(-c3nnc(C(F)F)o3)cc2C1=O [Example 23c, oxan-4-yl {6-[5-(difluoromethyl)-1,3,4-oxadiazol-2-yl]-1-oxo-1,3-dihydro-2H-isoindol-2-yl}[(4-fluorophenyl)methyl]carbamate]"
3,98%,"Fc1cc(-c2nnc(C(F)F)o2)cc(-c2nccn2Cc2ccncc2)c1 [Example 24a, 4-[(2-{3-[5-(difluoromethyl)-1,3,4-oxadiazol-2-yl]-5-fluorophenyl}-1H-imidazol-1-yl)methyl]pyridine]"
4,100%,"COC1CCCC(OC(=O)N(Cc2ccc(F)cc2)N2Cc3ccc(-c4nnc(C(F)F)o4)cc3C2=O)C1 (centres unmarked) [Example 24c, 3-methoxycyclohexyl {6-[5-(difluoromethyl)-1,3,4-oxadiazol-2-yl]-1-oxo-1,3-dihydro-2H-isoindol-2-yl}[(4-fluorophenyl)methyl]carbamate]"
5,98%,"Fc1cc(-c2nnc(C(F)F)o2)cc(-c2nccn2Cc2cncnc2)c1 [Example 25a, 5-[(2-{3-[5-(difluoromethyl)-1,3,4-oxadiazol-2-yl]-5-fluorophenyl}-1H-imidazol-1-yl)methyl]pyrimidine]"
6,100%,"CN1C(=O)c2cc(-c3nnc(C(F)F)o3)cnc2CC1(C)c1ccc(F)cc1 (centres unmarked) [Example 25b, 3-[5-(difluoromethyl)-1,3,4-oxadiazol-2-yl]-7-(4-fluorophenyl)-6,7-dimethyl-7,8-dihydro-1,6-naphthyridin-5(6H)-one]"
7,99%,"O=C(OCc1ccccn1)N(Cc1ccc(F)cc1)N1Cc2ccc(-c3nnc(C(F)F)o3)cc2C1=O [Example 25c, (pyridin-2-yl)methyl {6-[5-(difluoromethyl)-1,3,4-oxadiazol-2-yl]-1-oxo-1,3-dihydro-2H-isoindol-2-yl}[(4-fluorophenyl)methyl]carbamate]"
8,96%,Fc1cc(-c2nnc(C(F)F)o2)cc(-c2nccn2Cc2cccnn2)c1 [Example 26a]
9,100%,"CN1C(=O)c2cc(-c3nnc(C(F)F)o3)ccc2OC1(C)c1ccc(Cl)cc1 (centres unmarked) [Example 26b, 2-(4-chlorophenyl)-6-[5-(difluoromethyl)-1,3,4-oxadiazol-2-yl]-2,3-dimethyl-2,3-dihydro-4H-1,3-benzoxazin-4-one]"
10,99%,"O=C(OC1CCOC1)N(Cc1ccc(F)cc1)N1Cc2ccc(-c3nnc(C(F)F)o3)cc2C1=O (centres unmarked) [Example 26c, oxolan-3-yl {6-[5-(difluoromethyl)-1,3,4-oxadiazol-2-yl]-1-oxo-1,3-dihydro-2H-isoindol-2-yl}[(4-fluorophenyl)methyl]carbamate]"
11,95%,COCCn1ccnc1-c1cc(F)cc(-c2nnc(C(F)F)o2)c1 [Example 27a]
12,99%,"CCS(=O)(=O)N(Cc1ccc(F)cc1)N1Cc2ccc(-c3nnc(C(F)F)o3)cc2C1=O [Example 27c, N-{6-[5-(difluoromethyl)-1,3,4-oxadiazol-2-yl]-1-oxo-1,3-dihydro-2H-isoindol-2-yl}-N-[(4-fluorophenyl)methyl] ethanesulfonamide]"
13,99%,"Fc1cc(-c2nnc(C(F)F)o2)cc(-c2nccn2CC2CCC(F)(F)CC2)c1 [Example 28a, 2-(3-{1-[(4,4-difluorocyclohexyl)methyl]-1H-imidazol-2-yl)-5-fluorophenyl)-5-(difluoromethyl)-1,3,4-oxadiazole]"
14,97%,"O=C1NN(C2CCOCC2)Cc2ccc(-c3nnc(C(F)F)o3)cc21 [Example 28b, 7-[5-(difluoromethyl)-1,3,4-oxadiazol-2-yl]-3-(oxan-4-yl)-3,4-dihydrophthalazin-1(2H)-one]"
15,99%,"CN(Cc1ccc(F)cc1)N1Cc2ccc(-c3nnc(C(F)F)o3)cc2C1=O [Example 28c, 6-[5-(difluoromethyl)-1,3,4-oxadiazol-2-yl]-2-{[(4-fluorophenyl)methyl](methyl)amino}-2,3-dihydro-1H-isoindol-1-one]"
16,99%,"Fc1cc(-c2nnc(C(F)F)o2)cc(-c2nccn2CC2CCCOC2)c1 (centres unmarked) [Example 29a, 2-(difluoromethyl)-5-(3-fluoro-5-{1-[(oxan-3-yl)methyl]-1H-imidazol-2-yl}phenyl)-1,3,4-oxadiazole]"
17,99%,"O=C1NN(C2CCC(F)(F)CC2)Cc2ccc(-c3nnc(C(F)F)o3)cc21 [Example 29b, 3-(4,4-difluorocyclohexyl)-7-[5-(difluoromethyl)-1,3,4-oxadiazol-2-yl]-3,4-dihydrophthalazin-1(2H)-one]"
18,95%,"O=C1c2cc(-c3nnc(C(F)F)o3)ccc2CN1NC1CCCCC1 [Example 29c, 2-(cyclohexylamino)-6-[5-(difluoromethyl)-1,3,4-oxadiazol-2-yl]-2,3-dihydro-1H-isoindol-1-one]"
19,98%,"Fc1cc(-c2nnc(C(F)F)o2)cc(-c2nccn2CC2CCOCC2)c1 [Example 30a, 2-(difluoromethyl)-5-(3-fluoro-5-{1-[(oxan-4-yl)methyl]-1H-imidazol-2-yl}phenyl)-1,3,4-oxadiazole]"
20,100%,"O=C1NN(c2ccc(F)c(F)c2)Cc2ccc(-c3nnc(C(F)F)o3)cc21 [Example 30b, 7-[5-(difluoromethyl)-1,3,4-oxadiazol-2-yl]-3-(3,4-difluorophenyl)-3,4-dihydrophthalazin-1(2H)-one]"
21,92%,"O=C1c2cc(-c3nnc(C(F)F)o3)ccc2CN1Nc1ccc(F)cc1 [Example 30c, 6-[5-(difluoromethyl)-1,3,4-oxadiazol-2-yl]-2-(4-fluoroanilino)-2,3-dihydro-1H-isoindol-1-one]"
22,98%,"CC(=O)N1CCC(Cn2ccnc2-c2cc(F)cc(-c3nnc(C(F)F)o3)c2)CC1 [Example 31a, 1-{4-[(2-{3-[5-(difluoromethyl)-1,3,4-oxadiazol-2-yl]-5-fluorophenyl}-1H-imidazol-1-yl)methy]piperidin-1-yl}ethan-1-one]"
23,100%,"O=C1NN(c2ccc(F)c(Cl)c2)Cc2ccc(-c3nnc(C(F)F)o3)cc21 [Example 31b, 3-(3-chloro-4-fluorophenyl)-7-[5-(difluoromethyl)-1,3,4-oxadiazol-2-yl]-3,4-dihydrophthalazin-1(2H)-one]"
24,90%,"O=C1c2cc(-c3nnc(C(F)F)o3)ccc2CN1NCC(F)(F)F [Example 31c, 6-[5-(difluoromethyl)-1,3,4-oxadiazol-2-yl]-2-[(2,2,2-trifluoroethyl)amino]-2,3-dihydro-1H-isoindol-1-one]"
25,91%,"CCNC(=O)Cn1ccnc1-c1cc(F)cc(-c2nnc(C(F)F)o2)c1 [Example 32a, 2-(2-{3-[5-(difluoromethyl)-1,3,4-oxadiazol-2-yl]-5-fluorophenyl]-1H-imidazol-1-yl)-N-ethylacetamide]"
26,100%,"CN1C(=O)c2cc(-c3nnc(C(F)F)o3)ccc2OC1(C)c1ccc(F)c(F)c1 (centres unmarked) [Example 32b, 6-[5-(difluoromethyl)-1,3,4-oxadiazol-2-yl]-2-(3,4-difluorophenyl)-2,3-dimethyl-2,3-dihydro-4H-1,3-benzoxazin-4-one]"
